Data reported in PubChem BioAssay AID330 (DTP/NCI, 2004).
Several values for one entry are separate records, joined by “and”; a condition that tells them apart may be missing. Identical values can stand only once. Inconclusive results and toxic doses are left out. Rule for the calls: active = survival T/C of 150% or more; inactive = T/C below 125% in these data. Bridge positions count the residues as written; N and C are the ends. Peptide text beside a SMILES is read from it.

System: P388 leukemia ip, CD2F1 mice, survival T/C
Experiment: NCI In Vivo Anticancer Drug Screen. Data for tumor model P388 Leukemia (intraperitoneal) in CD2F1 (CDF1) mice
Conditions: endpoint: median survival time, higher = longer survival
In short: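 Mice carrying the transplanted tumor received test compound or vehicle. Survival was recorded in each group, and the value is the treated-group measurement divided by that of the vehicle-treated control group.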

[1] = dose: 50.0 mg/kg/injection, schedule: Q01DX005 (ip), vehicle: saline with Tween-80
[2] = dose: 100.0 mg/kg/injection, schedule: Q01DX005 (ip), vehicle: saline with Tween-80
[3] = dose: 200.0 mg/kg/injection, schedule: Q01DX005 (ip), vehicle: saline with Tween-80
[4] = dose: 100.0 mg/kg/injection, schedule: Q01DX001 (ip), vehicle: Klucel (hydroxypropylcellulose) (HPC)
[5] = dose: 200.0 mg/kg/injection, schedule: Q01DX001 (ip), vehicle: Klucel (hydroxypropylcellulose) (HPC)
[6] = dose: 100.0 mg/kg/injection, schedule: Q01DX009 (ip), vehicle: saline with Tween-80
[7] = dose: 60.0 mg/kg/injection, schedule: Q01DX005 (ip), vehicle: saline with Tween-80
[8] = dose: 120.0 mg/kg/injection, schedule: Q01DX005 (ip), vehicle: saline with Tween-80
[9] = dose: 240.0 mg/kg/injection, schedule: Q01DX005 (ip), vehicle: saline with Tween-80
[10] = dose: 6.25 mg/kg/injection, schedule: Q01DX009 (ip), vehicle: saline
[11] = dose: 12.5 mg/kg/injection, schedule: Q01DX009 (ip), vehicle: saline
[12] = dose: 6.25 mg/kg/injection, schedule: Q01DX009 (ip), vehicle: saline with Tween-80
[13] = dose: 12.5 mg/kg/injection, schedule: Q01DX009 (ip), vehicle: saline with Tween-80
[14] = dose: 25.0 mg/kg/injection, schedule: Q01DX009 (ip), vehicle: saline with Tween-80
[15] = dose: 50.0 mg/kg/injection, schedule: Q01DX009 (ip), vehicle: saline with Tween-80
[16] = dose: 50.0 mg/kg/injection, schedule: Q01DX009 (ip), vehicle: saline
[17] = dose: 100.0 mg/kg/injection, schedule: Q01DX009 (ip), vehicle: saline
[18] = dose: 50.0 mg/kg/injection, schedule: Q01DX005 (ip), vehicle: Klucel (hydroxypropylcellulose) (HPC)
[19] = dose: 100.0 mg/kg/injection, schedule: Q01DX005 (ip), vehicle: Klucel (hydroxypropylcellulose) (HPC)
[20] = dose: 200.0 mg/kg/injection, schedule: Q01DX005 (ip), vehicle: Klucel (hydroxypropylcellulose) (HPC)
[21] = dose: 50.0 mg/kg/injection, schedule: Q01DX009 (ip), vehicle: Klucel (hydroxypropylcellulose) (HPC)
[22] = dose: 100.0 mg/kg/injection, schedule: Q01DX009 (ip), vehicle: Klucel (hydroxypropylcellulose) (HPC)
[23] = dose: 200.0 mg/kg/injection, schedule: Q01DX009 (ip), vehicle: saline

Measured: T/C

Nc1[nH]c(=O)nc2sc3ccccc3c12
inactive: [1] 102 % of control | [2] 105 % of control | [3] 102 % of control

O=C(O)Cc1cn2cc(Cl)cc(Cl)c2n1
inactive: [4] 114 % of control | [5] 101 % of control | dose: 400.0 mg/kg/injection, schedule: Q01DX001 (ip), vehicle: Klucel (hydroxypropylcellulose) (HPC) 98 % of control

Nc1ccccc1-c1cncnc1N
inactive: [6] 98 % of control | dose: 200.0 mg/kg/injection, schedule: Q01DX009 (ip), vehicle: saline with Tween-80 101 % of control | dose: 400.0 mg/kg/injection, schedule: Q01DX009 (ip), vehicle: saline with Tween-80 106 % of control

O=C(Nc1ccc(Cl)cc1)Nc1nnc2nc(C(C(=O)c3ccc(Cl)cc3Cl)c3nc4nnc(NC(=O)Nc5ccc(Cl)cc5)n4[nH]c3=O)c(=O)[nH]n12
inactive: [7] 103 % of control | [8] 101 % of control | [9] 101 % of control

CCCC/C(C)=N/NC(=S)SC
inactive: dose: 3.12 mg/kg/injection, schedule: Q01DX009 (ip), vehicle: saline 100 % of control | [10] 106 % of control | [11] 100 % of control

CCC(C)C1NC(=O)C(CC(C)C)NC(=O)C(C(C)C)NC(=O)C2CSSCC(NC1=O)C(=O)N2 (stereo unspecified) (cyclo(CCVLI); disulfide 1-2; configuration not given here)
inactive: dose: 31.25 micrograms/kg/injection, schedule: Q01DX009 (ip), vehicle: Klucel (hydroxypropylcellulose) (HPC) 106 % of control | dose: 62.5 micrograms/kg/injection, schedule: Q01DX009 (ip), vehicle: Klucel (hydroxypropylcellulose) (HPC) 100 % of control | dose: 125.0 micrograms/kg/injection, schedule: Q01DX009 (ip), vehicle: Klucel (hydroxypropylcellulose) (HPC) 94 % of control | dose: 250.0 micrograms/kg/injection, schedule: Q01DX009 (ip), vehicle: Klucel (hydroxypropylcellulose) (HPC) 97 % of control | dose: 500.0 micrograms/kg/injection, schedule: Q01DX009 (ip), vehicle: Klucel (hydroxypropylcellulose) (HPC) 99 % of control | dose: 1000.0 micrograms/kg/injection, schedule: Q01DX009 (ip), vehicle: Klucel (hydroxypropylcellulose) (HPC) 97 % of control

CC(CN(C)C)C(=O)c1ccccc1 (stereo unspecified)
inactive: [12] 113 % of control | [13] 112 % of control | [14] 120 % of control | [15] 114 % of control | [16] 99 % of control | [6] 117 % of control | [17] 99 % of control

C1COCCOCCOCCO1.[Cl][Sn]([Cl])([Cl])[Cl]
inactive: [4] 98 % of control | [5] 90 % of control

CCCCCCCCCCCCCCCCNCCCS(=O)(=O)O
inactive: [12] 96 % of control | [10] 103 % of control | [13] 107 % of control | [11] 100 % of control | dose: 25.0 mg/kg/injection, schedule: Q01DX009 (ip), vehicle: saline 100 % of control | [15] 103 % of control | [16] 103 % of control

CC1CC[N-]C(CCC2CC(C)CC[N-]2)C1.CC1CC[N-]C(CCC2CC(C)CC[N-]2)C1.[Ni+2].[O-][Cl+3]([O-])([O-])O (stereo unspecified)
inactive: dose: 25.0 mg/kg/injection, schedule: Q01DX001 (ip), vehicle: saline 99 % of control | dose: 50.0 mg/kg/injection, schedule: Q01DX001 (ip), vehicle: saline 93 % of control | dose: 100.0 mg/kg/injection, schedule: Q01DX001 (ip), vehicle: saline 108 % of control and 96 % of control

CCN1c2ccccc2S(=O)(=O)n2c(Cc3ccccc3)nnc21
inactive: dose: 100.0 mg/kg/injection, schedule: Q01DX001 (ip), vehicle: saline with Tween-80 93 % of control | dose: 200.0 mg/kg/injection, schedule: Q01DX001 (ip), vehicle: saline with Tween-80 92 % of control

Cn1c2ccccc2c2[nH]c3ccccc3c(=O)c21
inactive: [18] 108 % of control and 97 % of control | [19] 95 % of control | [20] 90 % of control and 96 % of control

CC(=O)c1ccc(-n2c(=O)n(-c3ccccc3)c3nc4cc(C)ccc4nc32)cc1
inactive: [1] 90 % of control | [2] 92 % of control | [3] 98 % of control

CC1CC1(C1C=CCCC1)C1C=CCCC1 (stereo unspecified)
inactive: [1] 100 % of control | [2] 100 % of control | [3] 108 % of control

CCCOSSOCCC
inactive: [14] 103 % of control | [15] 100 % of control | [6] 99 % of control

COC(=O)C12C3c4ccccc4C1C2c1ccccc13 (stereo unspecified)
inactive: dose: 100.0 mg/kg/injection, schedule: Q04DX002 (ip), vehicle: saline 99 % of control | dose: 200.0 mg/kg/injection, schedule: Q04DX002 (ip), vehicle: saline 94 % of control | dose: 400.0 mg/kg/injection, schedule: Q04DX002 (ip), vehicle: saline 96 % of control

COc1ccc(C(=O)CC2=NC3NN(c4ccccc4)C(=O)C3=C2CC(=O)c2ccc(OC)cc2)cc1 (stereo unspecified)
inactive: dose: 60.0 mg/kg/injection, schedule: Q01DX005 (ip), vehicle: suspension in saline 101 % of control | dose: 120.0 mg/kg/injection, schedule: Q01DX005 (ip), vehicle: suspension in saline 108 % of control | dose: 240.0 mg/kg/injection, schedule: Q01DX005 (ip), vehicle: suspension in saline 112 % of control

CN(C)c1ccc2nc3ccc(=[N+](C)C)c([N+](=O)[O-])c-3sc2c1
inactive: dose: 15.0 mg/kg/injection, schedule: Q01DX005 (ip), vehicle: saline 105 % of control | dose: 30.0 mg/kg/injection, schedule: Q01DX005 (ip), vehicle: saline 100 % of control | [1] 116 % of control | [2] 100 % of control

O=C1c2ccsc2CN2C(=O)CCC12 (stereo unspecified)
inactive: [7] 95 % of control | [8] 103 % of control | [9] 110 % of control

Cc1cc(C)c(CSc2cc(N)nc(N)c2N)c(C)c1
inactive: [21] 104 % of control | [22] 107 % of control

O=C(C[n+]1ccnc2ccccc21)c1ccc(Cl)cc1
inactive: [18] 95 % of control | [19] 100 % of control | [20] 106 % of control

CC1(CCl)CC(=O)N1C(N)=O (stereo unspecified)
inactive: [16] 96 % of control | [17] 104 % of control | [23] 105 % of control

O=C(c1ccc(O)cc1)c1ccc(C(=O)c2ccc(O)cc2)cc1
inactive: [21] 99 % of control | [22] 97 % of control | dose: 200.0 mg/kg/injection, schedule: Q01DX009 (ip), vehicle: Klucel (hydroxypropylcellulose) (HPC) 90 % of control

C/C=C(\C)C(=O)N/N=C\c1cc(Cl)cc(Cl)c1O
inactive: dose: 12.5 mg/kg/injection, schedule: Q01DX009 (ip), vehicle: olive oil, sesame oil, peanut oil 106 % of control | dose: 25.0 mg/kg/injection, schedule: Q01DX009 (ip), vehicle: olive oil, sesame oil, peanut oil 98 % of control | dose: 50.0 mg/kg/injection, schedule: Q01DX009 (ip), vehicle: olive oil, sesame oil, peanut oil 106 % of control | dose: 100.0 mg/kg/injection, schedule: Q01DX009 (ip), vehicle: olive oil, sesame oil, peanut oil 102 % of control | dose: 200.0 mg/kg/injection, schedule: Q01DX009 (ip), vehicle: olive oil, sesame oil, peanut oil 96 % of control | dose: 400.0 mg/kg/injection, schedule: Q01DX009 (ip), vehicle: olive oil, sesame oil, peanut oil 93 % of control

CC(=O)Oc1ccccc1C(=O)OCc1ccccc1
inactive: [18] 94 % of control | [19] 92 % of control | [20] 100 % of control

CC1(C)Cc2ccccc2/C1=C/c1ccccn1
inactive: [7] 98 % of control | [8] 100 % of control | [9] 108 % of control

CC(O)CCOCCCBr (stereo unspecified)
inactive: dose: 50.0 mg/kg/injection, schedule: Q01DX005 (ip), vehicle: saline 100 % of control | dose: 100.0 mg/kg/injection, schedule: Q01DX005 (ip), vehicle: saline 102 % of control | dose: 200.0 mg/kg/injection, schedule: Q01DX005 (ip), vehicle: saline 102 % of control

C/C=C(\C)C(N)=O
inactive: [16] 90 % of control | [17] 100 % of control | [23] 95 % of control
